Experimental data taken from patent US20170129916A1, “NOVEL BETULINIC PROLINE IMIDAZOLE DERIVATIVES AS HIV INHIBITORS” (HETERO RESEARCH FOUNDATION, priority 2014, published 2017).

Key:
[1] = tested on: HIV-1 strains, for e.g., 92HT599; assay: Antiviral activity: p24 estimation in MT-2 cells infected with HIV-1; format: cell-based; conditions: Human immunodeficiency virus 1, MT2, MT-2 cells infected with HIV-1, p24, ~96 hours; for IC50: read-out: Antiviral activity IC50 (nM) Efficacy IC50
Protocol: MT-2 cells were infected with required number of TCID50's of HIV-1 strains, for e.g., 92HT599. The infected cells were plated at the concentration of 30, 000 cells per well in a 96 well plate. Test compound was added to the 96 well plate with the final concentration of DMSO (vehicle—not more than 1%). The plates are then incubated in a CO2 incubator for ˜96 hours (˜4 days) for viral infection. At the end of incubation period an aliquot from each well was taken for p24 estimation. The quantitation of p24 is an estimated index for antiviral activity of the compound. Percent inhibition was calculated with reference to control values (vehicle controls).
p-24 estimation was carried out using Advance biosciences kit as per the procedure detailed by supplier.

[2] = Single dose oral pharmacokinetic study; format: in vivo; conditions: mouse, mice, 30 mg/kg, plasma; for AUC(0-t): read-out: Mice oral PK @30 mg/kg AUC 0-t; for Cmax: read-out: Mice oral PK @30 mg/kg Cmax
In short: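 Rats or mice received 30 mg/kg orally at 10 ml/kg dose volume. Retro-orbital blood was taken into K3 EDTA at defined intervals under light ether anesthesia and centrifuged to plasma. Plasma levels were measured by LC-MS-MS.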

| SMILES | IC50 [1] [nM] | AUC(0-t) [2] [µg·h/mL] | Cmax [2] [ng/mL] | inhibition at 0.1 µM [1] [%] | inhibition at 1 µM [1] [%] |
| --- | --- | --- | --- | --- | --- |
| C=C(C)[C@@H]1CC[C@]2(C(=O)N3CCC[C@H]3c3ncc(C(C)(C)C)o3)CC[C@]3(C)[C@H](CC[C@@H]4[C@@]5(C)CC[C@H](OC(=O)[C@H]6C[C@@H](C(=O)O)C6(C)C)C(C)(C)[C@@H]5CC[C@]43C)[C@@H]12 [Compound 16, (1R,3S)-3-((((1R,3aS,5aR,5bR,7aR,9S,11aR,11bR,13aR,13bR)-3a-((S)-2-(5-(tert-butyl)oxazol-2-yl)pyrrolidine-1-carbonyl)-5a,5b,8,8,11a-pentamethyl-1-(prop-1-en-2-yl)icosahydro-1H-cyclopenta[a]chrysen-9-yl)oxy)carbonyl)-2,2-dimethylcyclobutane-1-carboxylic acid] | 103 | 229 | 7890 | – | – |
| C=C(C)[C@@H]1CC[C@]2(C(=O)N3C[C@H](OCCOC)C[C@H]3c3nc(C(C)(C)C)c[nH]3)CC[C@]3(C)[C@H](CC[C@@H]4[C@@]5(C)CC[C@H](OC(=O)[C@H]6C[C@@H](C(=O)O)C6(C)C)C(C)(C)[C@@H]5CC[C@]43C)[C@@H]12 [Compound 31, (1R,3S)-3-((((1R,3aS,5aR,5bR,7aR,9S,11aR,11bR,13aR,13bR)-3a-((2S,4R)-2-(4-(tert-butyl)-1H-imidazol-2-yl)-4-(2-methoxyethoxy)pyrrolidine-1-carbonyl)-5a,5b,8,8,11a-pentamethyl-1-(prop-1-en-2-yl)icosahydro-1H-cyclopenta[a]chrysen-9-yl)oxy)carbonyl)-2,2-dimethylcyclobutane-1-carboxylic acid] | 19.7 | 195 | 9200 | 100 | 100 |
| C=C(C)[C@@H]1CC[C@]2(C(=O)N3CCC[C@H]3c3ncc(-c4ccccc4)o3)CC[C@]3(C)[C@H](CC[C@@H]4[C@@]5(C)CC[C@H](OC(=O)[C@H]6C[C@@H](C(=O)O)C6(C)C)C(C)(C)[C@@H]5CC[C@]43C)[C@@H]12 [Compound 15, (1R,3S)-2,2-dimethyl-3-((((1R,3aS,5aR,5bR,7aR,9S,11aR,11bR,13aR,13bR)-5a,5b,8,8,11a-pentamethyl-3a-((S)-2-(5-phenyloxazol-2-yl)pyrrolidine-1-carbonyl)-1-(prop-1-en-2-yl)icosahydro-1H-cyclopenta[a]chrysen-9-yl)oxy)carbonyl)cyclobutane-1-carboxylic acid] | 124 | 208 | 6510 | – | – |
| CC1([C@@H]2CC[C@]3(C(=O)N4CCC[C@H]4c4ncc(-c5cccc(F)c5)[nH]4)CC[C@]4(C)[C@H](CC[C@@H]5[C@@]6(C)CC[C@H](OC(=O)[C@H]7C[C@@H](C(=O)O)C7(C)C)C(C)(C)[C@@H]6CC[C@]54C)[C@@H]23)CC1 [Compound 50, (1R,3S)-3-((((1R,3aS,5aR,5bR,7aR,9S,11aR,11bR,13aR,13bR)-3a-((S)-2-(5-(3-fluorophenyl)-1H-imidazol-2-yl)pyrrolidine-1-carbonyl)-5a,5b,8,8,11a-pentamethyl-1-(1-methylcyclopropyl)icosahydro-1H-cyclopenta[a]chrysen-9-yl)oxy)carbonyl)-2,2-dimethylcyclobutane-1-carboxylic acid] | 0.35 | 358 | 13900 | – | – |
| COCCO[C@@H]1C[C@@H](c2nc(-c3ccc(F)cc3)c[nH]2)N(C(=O)[C@]23CC[C@@H](C4(C)CC4)[C@@H]2[C@H]2CC[C@@H]4[C@@]5(C)CC[C@H](OC(=O)[C@H]6C[C@@H](C(=O)O)C6(C)C)C(C)(C)[C@@H]5CC[C@@]4(C)[C@]2(C)CC3)C1 [Compound 55, (1R,3S)-3-((((1R,3aS,5aR,5bR,7aR,9S,11aR,11bR,13aR,13bR)-3a-((2S,4R)-2-(4-(4-fluorophenyl)-1H-imidazol-2-yl)-4-(2-methoxyethoxy)pyrrolidine-1-carbonyl)-5a,5b,8,8,11a-pentamethyl-1-(1-methylcyclopropyl)icosahydro-1H-cyclopenta[a]chrysen-9-yl)oxy)carbonyl)-2,2-dimethylcyclobutane-1-carboxylic acid] | 1.04 | 381 | 14300 | – | – |
| C=C(C)[C@@H]1CC[C@]2(C(=O)N3C[C@H](OCCOC)C[C@H]3c3nc(-c4ccccc4)c[nH]3)CC[C@]3(C)[C@H](CC[C@@H]4[C@@]5(C)CC[C@H](OC(=O)[C@H]6C[C@@H](C(=O)O)C6(C)C)C(C)(C)[C@@H]5CC[C@]43C)[C@@H]12 [Compound 7, (1R,3S)-3-((((1R,3aS,5aR,5bR,7aR,9S,11aR,11b,13aR,13bR)-3a-((2S,4R)-4-(2-methoxyethoxy)-2-(4-phenyl-1H-imidazol-2-yl)pyrrolidine-1-carbonyl)-5a,5b,8,8,11a-pentamethyl-1-(prop-1-en-2-yl)icosahydro-1H-cyclopenta[a]chrysen-9-yl)oxy)carbonyl)-2,2-dimethylcyclobutane-1-carboxylic acid] | 5.5 | 342 | 12800 | – | – |
| COCCOc1ccc(-c2cnc([C@@H]3CCCN3C(=O)[C@]34CC[C@@H](C5(C)CC5)[C@@H]3[C@H]3CC[C@@H]5[C@@]6(C)CC[C@H](OC(=O)CC(C)(C)C(=O)O)C(C)(C)[C@@H]6CC[C@@]5(C)[C@]3(C)CC4)[nH]2)cc1 [Compound 66] | 0.73 | 62.1 | 6590 | – | – |
| C=C(C)[C@@H]1CC[C@]2(C(=O)N3CCC[C@H]3c3nnc(-c4ccccc4)[nH]3)CC[C@]3(C)[C@H](CC[C@@H]4[C@@]5(C)CC[C@H](OC(=O)[C@H]6C[C@@H](C(=O)O)C6(C)C)C(C)(C)[C@@H]5CC[C@]43C)[C@@H]12 [Compound 24, (1R,3S)-2,2-dimethyl-3-((((1R,3aS,5aR,5bR,7aR,9S,11aR,11bR,13aR,13bR)-5a,5b,8,8,11a-pentamethyl-3a-((S)-2-(5-phenyl-4H-1,2,4-triazol-3-yl)pyrrolidine-1-carbonyl)-1-(prop-1-en-2-yl)icosahydro-1H-cyclopenta[a]chrysen-9-yl)oxy)carbonyl)cyclobutane-1-carboxylic acid] | 9.06 | 439 | 12200 | – | – |
| C=C(C)[C@@H]1CC[C@]2(C(=O)N3C[C@H](OCCOC)C[C@H]3c3nc(-c4ccccc4)c[nH]3)CC[C@]3(C)[C@H](CC[C@@H]4[C@@]5(C)CC[C@H](OC(=O)CC(C)(C)C(=O)O)C(C)(C)[C@@H]5CC[C@]43C)[C@@H]12 [Compound 43, 4-(((1R,3aS,5aR,5bR,7aR,9S,11aR,11bR,13aR,13bR)-3a-((2S,4R)-4-(2-methoxyethoxy)-2-(4-phenyl-1H-imidazol-2-yl)pyrrolidine-1-carbonyl)-5a,5b,8,8,11a-pentamethyl-1-(prop-1-en-2-yl)icosahydro-1H-cyclopenta[a]chrysen-9-yl)oxy)-2,2-dimethyl-4-oxobutanoic acid] | 0.3 | 333 | 15400 | – | – |
| C=C(C)[C@@H]1CC[C@]2(C(=O)N3CCC[C@H]3c3ncc(-c4ccccc4)[nH]3)CC[C@]3(C)[C@H](CC[C@@H]4[C@@]5(C)CC[C@H](OC(=O)c6ccc(OC(C)(C)C(=O)O)cc6)C(C)(C)[C@@H]5CC[C@]43C)[C@@H]12 [Compound 23, 2-methyl-2-(4-((((1R,3aS,5aR,5bR,7aR,9S,11aR,11bR,13aR,13bR)-5a,5b,8,8,11a-pentamethyl-3a-((S)-2-(5-phenyl-1H-imidazol-2-yl)pyrrolidine-1-carbonyl)-1-(prop-1-en-2-yl)icosahydro-1H-cyclopenta[a]chrysen-9-yl)oxy)carbonyl)phenoxy)propanoic acid] | 0.7 | 302 | 10600 | – | – |
| C=C(C)[C@@H]1CC[C@]2(C(=O)N3C[C@H](OCCOC)C[C@H]3c3nc(-c4ccc(F)cc4)c[nH]3)CC[C@]3(C)[C@H](CC[C@@H]4[C@@]5(C)CC[C@H](OC(=O)CC(C)(C)C(=O)O)C(C)(C)[C@@H]5CC[C@]43C)[C@@H]12 [Compound 45, 4-(((1R,3aS,5aR,5bR,7aR,9S,11aR,11bR,13aR,13bR)-3a-((2S,4R)-2-(4-(4-fluorophenyl)-1H-imidazol-2-yl)-4-(2-methoxyethoxy)pyrrolidine-1-carbonyl)-5a,5b,8,8,11a-pentamethyl-1-(prop-1-en-2-yl)icosahydro-1H-cyclopenta[a]chrysen-9-yl)oxy)-2,2-dimethyl-4-oxo butanoic acid] | 0.3 | 275 | 11500 | – | – |
| CC(C)(CC(=O)O)CC(=O)O[C@H]1CC[C@]2(C)[C@H]3CC[C@@H]4[C@H]5[C@H](C6(C)CC6)CC[C@]5(C(=O)N5CCC[C@H]5c5ncc(-c6ccc(F)cc6)[nH]5)CC[C@@]4(C)[C@]3(C)CC[C@H]2C1(C)C [Compound 70, 5-(((1R,3aS,5aR,5bR,7aR,9S,11aR,11bR,13aR,13bR)-3a-((S)-2-(5-(4-fluorophenyl)-1H-imidazol-2-yl)pyrrolidine-1-carbonyl)-5a,5b,8,8,11a-pentamethyl-1-(1-methylcyclopropyl)icosahydro-1H-cyclopenta[a]chrysen-9-yl)oxy)-3,3-dimethyl-5-oxopentanoic acid] | – | 172 | 10000 | 84 | 99 |
